Laboratory results as given in patent US7772212B2, “Isomaltooligosaccharides to inhibit avian pathogenic intestinal bacteria” (priority 2003, dated 2010).

How the values were obtained:
[1] = test system: α-Glucosidase (maltase; EC 3.2.1.20); assay: Kinetic assay for α-glucosidase; format: biochemical; conditions: 0%, 0.25%, 0.5% test sugar; maltose 0, 50, 100, 250 mM; 37° C., pH 7
Protocol: α-Glucosidase (maltase; EC 3.2.1.20), β-NAD, glucose dehydrogenase (EC 1.1.147) and other reagent chemicals were obtained from the Sigma Chemical Co. (St. Louis, Mo.). The kinetic assays were based on the following reaction;
The kinetic assays were all performed in 96-well plates and read at wavelength 320 nm in a SPECTRAmax Plus microtiter plate reader (Molecular Devices Corp., Sunnyvale, Calif.) at 37° C. The software package Softmax™ was used for data analysis. α-Glucosidase (maltase; EC 3.2.1.20), β-NAD, and glucose dehydrogenase (EC 1.1.147) solutions were prepared with 0.1M K2HPO4 (pH 7) buffer. Each well contained 25 μl of 0.13 IU/ml glucose dehydrogenase, 25 μl of 1.65 IU/ml of α-glucosidase, and 20 μl of 12 mM of G-NAD in a total volume of 200 μl with different combinations of sugars and 0.1M K2HPO4 (pH 7) buffer. Absorbance change with time was measured at 320 nm.
In order to determine the role of branching in the inhibition, the Ki values for panose and isomaltotriose were also determined.

B. longum = assay: Growth test with panose and maltooligosaccharides; format: cell-based, Bifidobacterium longum; conditions: combinations of panose and maltooligosaccharides (DP 4 to DP 10), anaerobic, 37° C.
Protocol: (§1) To further determine whether Leuconostoc IMO acts as a starch-metabolism inhibitor, B. longum and S. typhimurium were grown in different combinations of panose and maltooligosaccharides (from DP 4 to DP 10). As the concentration of panose in the growth medium increased, the growth of S. typhimurium slowed but B. longum growth increased. (FIGS. 11A and 11B, respectively).

S. typhimurium = assay: Growth test with panose and maltooligosaccharides; format: cell-based, Salmonella typhimurium; conditions: combinations of panose and maltooligosaccharides (DP 4 to DP 10), anaerobic, 37° C.
Protocol: as §1

Structure (SMILES) | Inhibition of α-glucosidase (maltase) activity [1] | Growth of B. longum as panose concentration in medium increased (B. longum) | Growth of S. typhimurium as panose concentration in medium increased (S. typhimurium)
OC[C@H]1O[C@H](OC[C@H]2O[C@H](OC[C@H]3OC(O)[C@H](O)[C@@H](O)[C@@H]3O)[C@H](O)[C@@H](O)[C@@H]2O)[C@H](O)[C@@H](O)[C@@H]1O (stereo partly shown) [Isomaltotriose, isomaltotriose] | not inhibitory | – | –
OC[C@H]1O[C@H](OC[C@H]2O[C@H](O[C@H]3[C@H](O)[C@@H](O)C(O)O[C@@H]3CO)[C@H](O)[C@@H](O)[C@@H]2O)[C@H](O)[C@@H](O)[C@@H]1O (stereo partly shown) [panose] | showed an inhibition | increased | slowed
